# Assay results published in patent US4681091A, “Combination modality cancer therapy” (priority 1985, dated 1987).
# Read-outs that look alike come from different tables or passages of the source.
# Tests used:
# [1] = system: bacterial cells (salmonella typhimurium TM677)
# mammalian cell culture [2] = test: cells
# From the text: Immediately after addition of the drug to the culture media, the petri dishes containing the cells are placed into aluminium chambers which are then degassed and purged with nitrogen to produce hypoxia. The degassing/back-filling cycle is repeated two times and the cells are irradiated with cobalt-60 gamma rays in the aluminium chambers at the end of the two hours. Control, un-irradiated cell cultures are exposed to the drug in various concentrations to assess drug cytotoxicity. Immediately following irradiation the cells are removed from the petri dishes using trypsin enzyme for 6 minutes, pipetted into single cell suspensions, and serially diluted for subculturing in triplicate petri dishes containing 5 cc of fresh culture media without the test compound. These dishes are incubated in 5% CO2 at 37° C. for 10 days and, following staining, the colonies are counted to produce survival curves (surviving fraction of cells versus compound concentration or radiation dose). As in the bacterial radiosensitization tests, baseline curves for irradiation of the mammalian cells under oxic and hypoxic conditions in the absence of the compound are also determined to allow a quantitative estimation of the efficiency of the compound in sensitizing the cells to radiation-induced killing by deriving enhancement ratios.
# In FIG. 3, the dotted line represents the standard or average reported misonidazole response. The symbols " " and ` ` represent experimental misonidazole response and the experimental Rh compound response respectively.
# mammalian cell culture [3] = conditions: for 1 hour Aerobic Cytotoxicity: aerobic mammalian cell culture; for 1 hour hypoxic cytotoxicity: hypoxic mammalian cell culture
# in vitro = conditions: salmonella typhimurium tm677, N/No (toxicity)
# [4] = system: bacterial cells (salmonella typhimurium TM677); conditions: salmonella typhimurium tm677, 0 h, 200 µM
compound,measurement,setting,value
CCCC[N+](CCCC)(CCCC)CCCC.[C-]#[O+].[C-]#[O+].[Cl-].[Cl-].[Rh+] [tetra-n-butylammoniumdicarbonyldichlororhodium (I)],"toxicity, water solubility or sensitisation effect (combined statement)",[1],"either too toxic, not soluble in water or failed altogether to show a sensitisation effect"
dichlorobis (ethylenediamine) rhodium (III) [Compound 3],"improvement for cell-kill (N/No), sensitised vs unsensitised cells",[1],dramatic improvement for cell-kill (N/No)
"COCC(O)Cn1ccnc1[N+](=O)[O-] (stereo not shown) [misonidazole, reference compound]",EC (SER 1.6),mammalian cell culture [2]; read-out: C1.6: concentration required to give an ser (sensitizer enhancement ratio) of 1.6,1500 µM
[O-2].[O-2].[O-2].[Rh+3].[Rh+3] [rhodium oxide],"toxicity, water solubility or sensitisation effect (combined statement)",[1],"either too toxic, not soluble in water or failed altogether to show a sensitisation effect"
NCCN.NCCN.[Cl-].[Cl-].[Cl-].[Cl-].[Cl-].[Cl-].[Cl-].[Cl-].[NH3+]CC[NH3+].[Rh+3].[Rh+3] [[RhenCl4]2 [enH2]],1 hour Aerobic Cytotoxicity,mammalian cell culture [3]; 100 µM,78.0%
same,1 hour Aerobic Cytotoxicity,mammalian cell culture [3]; 1000 µM,61.0%
same,1 hour Aerobic Cytotoxicity,mammalian cell culture [3]; 10000 µM,6.1%
same,1 hour hypoxic cytotoxicity,mammalian cell culture [3]; 100 µM,95%
same,1 hour hypoxic cytotoxicity,mammalian cell culture [3]; 330 µM,83.6%
same,1 hour hypoxic cytotoxicity,mammalian cell culture [3]; 1000 µM,62.7%
same,1 hour hypoxic cytotoxicity,mammalian cell culture [3]; 3300 µM,22%
same,1 hour hypoxic cytotoxicity,mammalian cell culture [3]; 10000 µM,< 1%
same,aerobic (oxic) response,"mammalian cell culture [2]; FIG. 3, aerobic (oxic)",effectively zero
same,effectiveness compared with misonidazole,mammalian cell culture [2]; from concentrations giving ser 1.6,75%
"O=[N+]([O-])[Rh-3]([N+](=O)[O-])([N+](=O)[O-])([N+](=O)[O-])([N+](=O)[O-])[N+](=O)[O-].[K+].[K+].[K+] [Compound 2, potassium hexanitrorhodium (III)]","viability at 0 h, 200 µM",in vitro,100%
same,"viability at 0.5 h, 200 µM",in vitro,105%
same,N/No (toxicity),[4],1
same,"improvement for cell-kill (N/No), sensitised vs unsensitised cells",[1],dramatic improvement for cell-kill (N/No)
[Cl][Rh]([Cl])[Cl] [rhodium trichloride],"toxicity, water solubility or sensitisation effect (combined statement)",[1],"either too toxic, not soluble in water or failed altogether to show a sensitisation effect"
